Source: patent US20230183187A1, “QUINAZOLINE COMPOUNDS AS INHIBITORS OF PREMATURE TERMINATION CODONS” (CENTRE NATIONAL DE LA RECHERCHE SCIENTIFIQUE, priority 2020, published 2023)

Columns and labels:
[1] = test system: p53 (endogenous nonsense mutation R213X) in HDQ-P1 cells; assay: Western blot of full-length p53 in HDQ-P1 cells; assay type: cell-based, human; details: HDQ-P1, 48 h
Procedure: HDQ-P1 cells (R213X) were treated with G418 ([…]), or the selected molecules (TLN68 50 μM, TLN1399 50 μM, TLN236 30 μM and TLN309 40 μM), for 48 h. Cells were harvested by treatment with trypsin—EDTA (Invitrogen), lysed in 350 mM NaCl, 50 mM Tris—HCl pH 7.5, 1% NP-40, and protease inhibitor cocktail (Roche) and disrupted by passage through a syringe.
Total proteins were quantified with Bradford reagent (Biorad) and extracts were denatured by incubation in Laemmli buffer for 5 minutes at 90° C. The inventors subjected 30 μg of total protein from HDQ-1 cells to SDS—PAGE in 4/10% Bis—Tris gels. Proteins were transferred onto nitrocellulose membranes, according to the manufacturer's instructions (Biorad). Membranes were saturated by overnight incubation in 5% skimmed milk powder in PBS, and incubated for 1 hour with the primary monoclonal antibody, DO-1 (N-terminal epitope mapping between amino acid residues 11 and 25 of p53; Santa Cruz Biotechnologies, 1/400) or a monoclonal antibody against mouse actin (Millipore, 1/2000). After three washes in PBS supplemented with 0.1% Tween, the membranes were incubated with the secondary antibody [horseradish peroxidase-conjugated anti-mouse IgG ( 1/2500)] for 45 minutes. The membranes were washed five times and chemiluminescence was detected with ECL Prime Western Blotting Detection Reagents (Amersham, GE Healthcare). The signal was quantified with ImageJ software.

nonsense mutation R213X = assay: pAC99 dual reporter readthrough in HeLa cells, R213X; assay type: cell-based, human; details: 24 hours
Procedure: Different compounds of the invention have been tested for their ability to induce readthrough on the nonsense mutation W1268X or R213X in HeLa cells.
To this aim the inventors used the pAC99 dual reporter plasmid. This dual reporter is used to quantify stop-codon readthrough through the measurement of luciferase and beta-galactosidase (internal normalisation) activities. Readthrough levels for nonsense mutations were analysed in the presence or absence of tested molecules. Cells are seeded in a 6-well plate. The next day, cells are transfected with the reporter plasmid using the JetPei reagent (Invitrogen). The following day, they are rinsed with fresh medium, with or without readthrough inducers. Cells were harvested 24 hours later, with trypsin—EDTA (Invitrogen), lysed with Glo lysis buffer (Promega) and beta-galactosidase and luciferase activities were assayed as previously described. Readthrough efficiency was estimated by calculating the ratio of luciferase activity to beta-galactosidase activity obtained with the test construct, with normalisation against an in-frame control construct. At least five independent transfection experiments were performed for each assay.

[2] = test system: -1 programmed ribosomal frameshifting from HIV-1; assay: Frameshifting test, dual reporter, NIH3T3 cells; assay type: cell-based, mouse; details: NIH3T3, TLN68 80 μM, HIV-1 frameshift signal
Procedure: To determinate if TLN68 alter global translational fidelity or if it is specific of readthrough event the inventors tested capacity of this molecule to induce frameshifting. They used a frameshift target which have already been used to study the minus1 frameshift signal of the retrovirus HIV-1 (Stahl et al, 1995). This 54 nucleotide sequence was inserted in the dual reporter vector and used to transfect NIH3T3 cells. Transfected cells were treated or not with TLN68 at 80 μM.

[3] = test system: p53-R213X transcriptional activity; assay: TP53 protein activity assay (p53BS-luc reporter) in H1299 cells; assay type: cell-based, human; details: H1299 cotransfected with pCMV-R213X, pCMVLacZ, 20 hours, TLN68 20, 50, 80 and 100 mM as printed
Procedure: The inventors investigated the transcriptional activity of the p53 protein in H1299, a p53-null cell line. Cells were cotransfected, by the JetPei method, with the p53BS-luc reporter plasmid containing the firefly luciferase gene downstream from seven p53 binding sites, the pCMVLacZ and the pCMVp53R213X containing the p53 cDNA interrupted by the stop mutation R213X. TLN68 ([…]) was added to the medium just before transfection for a total of 20 hours of treatment. Protein extracts were then prepared and enzymatic activities were measured. Transfection with pCMVLacZ was used to normalise transfection efficiency, cell viability and protein extraction. At least six independent transfection experiments were performed for each set of conditions.

[4] = test system: 40 more frequent nonsense mutations found in DMD gene; assay: Dual reporter readthrough on the 40 most frequent DMD nonsense mutations; assay type: cell-based; parameters: number of DMD nonsense sequences on which readthrough is promoted: dose or concentration left out as unconfirmed
Text: Complementary oligonucleotides corresponding to TP53 R213X nonsense mutations and 9 nucleotides on both sides are ligated into the pAC99 dual reporter plasmid, as previously described (Premature stop codons involved in muscular dystrophies show a broad spectrum of readthrough efficiencies in response to gentamicin treatment, Bidou et al, Gene Therapy 1 Apr. 2004, 11(7):619-627). This dual reporter is used to quantify stop-codon readthrough through the measurement of luciferase and beta-galactosidase (internal calibration) activities, as previously described (Stahl et al, Versatile vectors to study recoding: conservation of rules between yeast and mammalian cells. Nucleic Acids Res 1995; 23:1557-60). Readthrough levels for nonsense mutations were analysed in the presence or absence of tested molecules. Cells were seeded in a 6-well plate. […] The following day, they are rinsed with fresh medium, with or without readthrough inducers. […] Readthrough efficiency was estimated by calculating the ratio of luciferase activity to beta-galactosidase activity obtained with the test construct, with normalisation against an in-frame control construct. […]
Each nonsense mutation (+9 nucleotides in each side) has been cloned into the dual reporter previously used. Stop codon readthrough efficiency has been quantified either without drug or in presence of gentamicin or TLN68, in 6 independent experiments. […]

Structure (SMILES): Cc1nc(NC(=N)N)nc2ccccc12 [TLN68]
- level of induction of full-length p53 compared with G418 ([1]; G418 10 and 20 mM): even higher to the one obtained in presence of G418
- production of the full-length p53 (western blot) ([1]; TLN68 50 μM, TLN236 30 μM, TLN309 40 μM): stimulate the production of the full-length p53
- Inducting factor of readthrough as compared to untreated cells (measured on nonsense mutation R213X) (nonsense mutation R213X): 14
- impact on -1 translational frameshifting [2]: no impact on translational frameshifting
- increase of the p53-dependent luciferase [3]: 3.5 fold
- readthrough compared with gentamicin on the DMD set of sequences ([4]; gentamicin 2.5 mM, same conditions): outperforms gentamicin
- number of DMD nonsense sequences on which readthrough is promoted ([4]; out of 40 tested, 6 independent experiments): 28
